In US9994536B2, “Compounds and methods of treating neurological disorders” (TORREY PINES INSTITUTE FOR MOLECULAR STUDIES, priority 2014, dated 2018):

Columns and labels:
sAPPα = sAPPα ELISA, fibroblasts derived from AD patients; assay type: cell-based, human; conditions: 24 h
Protocol: (1). […] Therefore, we first used fibroblasts derived from AD patients (AG06263C, Coriell Cell repository, supported by NINDS/NIH) and exposed to THPI-244 for 24 h and measured sAPPα release by ELISA as done above for NT2 cells. […] We also confirmed dose-dependent effect of THPI-244 on sAPPα levels in human primary neurons transiently transfected with APP751 with Swedish mutation which is trafficked differently from WT APP and releases more sAPPα. Human neurons were grown on specially coated glass coverslips (cat #GG-18-PDL, NeuVitro, Germany). We could reproducibly achieve nearly 30% transfection efficiency using a nanoparticle based transfection reagent called Neuromag (cat #NM150299, OZ Biosciences, France).

TrkA = TrkA (Homo sapiens, UniProt P04629); assay: TrkA protein level immunoblot, NT2 cells, with or without PKC inhibitor; assay type: cell-based; design: endogenous in cells; host or cells: NT2 cells (stably expressing APP751)
Chain of TrkA (P04629 33-796): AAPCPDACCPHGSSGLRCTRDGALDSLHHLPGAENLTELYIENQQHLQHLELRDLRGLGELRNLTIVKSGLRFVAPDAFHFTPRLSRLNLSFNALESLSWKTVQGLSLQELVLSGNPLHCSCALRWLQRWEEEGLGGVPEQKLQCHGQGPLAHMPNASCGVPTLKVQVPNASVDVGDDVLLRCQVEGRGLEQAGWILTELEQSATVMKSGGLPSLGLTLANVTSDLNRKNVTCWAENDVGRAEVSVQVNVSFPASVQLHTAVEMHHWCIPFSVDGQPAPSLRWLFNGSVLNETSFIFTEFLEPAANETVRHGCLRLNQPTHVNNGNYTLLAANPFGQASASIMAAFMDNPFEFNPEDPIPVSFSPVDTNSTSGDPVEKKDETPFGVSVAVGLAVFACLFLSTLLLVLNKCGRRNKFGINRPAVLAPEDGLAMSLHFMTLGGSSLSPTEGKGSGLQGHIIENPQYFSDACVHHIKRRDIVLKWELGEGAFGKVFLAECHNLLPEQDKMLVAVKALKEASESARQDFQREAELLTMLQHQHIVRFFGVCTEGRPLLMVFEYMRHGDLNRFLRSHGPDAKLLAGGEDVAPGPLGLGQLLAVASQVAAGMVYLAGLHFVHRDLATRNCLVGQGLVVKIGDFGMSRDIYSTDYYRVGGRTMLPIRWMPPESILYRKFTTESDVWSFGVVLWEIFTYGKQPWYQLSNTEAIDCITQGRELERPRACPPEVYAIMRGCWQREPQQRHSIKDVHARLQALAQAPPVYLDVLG
Protocol: (3). THPI-244 increases TrkA receptor levels independent of protein kinase C (PKC). Next to clarify whether increased sAPPα levels depends on increased TrkA activation, NT2 cells were treated with THPI-244 with or without TrkA inhibitor (cat #GW 441756, Tocris Bioscience) at 50 nM final concentration. After 24 h, sAPPα levels were quantified from the conditioned medium by immunoblots. […] We next wanted to address whether increased TrkA protein levels by THPI-244 depends on PKC since PKC activators are well-known to induce sAPPα secretion (Etcheberringaray, R., et al., 2004, PNAS, 101, 11141-11146). NT2 cells were similarly treated with THPI-244 at 100 nM with or without PKC inhibitor (GF 109203, cat #0741, Tocris Bioscience) at 1.0 nM and TrkA protein levels were quantified by immunoblots as shown in FIG. 1.10 (right). […] Thus increased sAPPα level by THPI-244 is through upregulation of TrkA receptor independent of PKC.

[1] = Brain levels of compound after i.p. injection (BBB passage), LC-MS; assay type: in vivo, mouse
Protocol: (3). Since blood brain barrier (BBB) is the main obstacle for drug development for any CNS disorders, we first wanted to verify whether compound THPI-244 enters the brain. We followed protocols exactly as published previously from our laboratory (Hayes, C D et al., 2013, BMC Med. 26, 11.81). […] We generated a standard graph (FIG. 1.4 (middle)) to be used in the quantitation of THPI-244 in the brain after intraperitoneal (i.p.) injections at 0.2 mg/kg body weight.

Aβ42 = Aβ42 ELISA, NT2 stable cells; assay type: cell-based, human
Protocol: (5). To confirm the effect of THPI-244 on sAPPα levels in a neuronal cell line and by a tertiary assay, we exposed human Neuron-committed Teratocarcinoma cell line (NT2) stably expressing human APP751 to different concentrations of THPI-244 for 24 h and compared with that of Bryostatin, a classical activator of PKC known to stimulate sAPPα release. […] Levels of sAPPα were measured by ELISA using commercially available kit (cat #27734, IBL-America, Minneapolis, Minn., USA). […] Similar biphasic effect of Bryostatin was confirmed for Aβ42 also, measured again in NT2 stable cells by ELISA (cat #KHB3441, Life Technologies, Grand Island, N.Y., USA). Consistent with sAPPα, THPI-244 decreased Aβ42 levels dose-dependently starting from 50 nM (28%, p<0.05) to 2000 nM (64%, p<0.001) (n=4 independent experiments) (FIG. 1.7). Thus THPI-244 increased non-amyloidogenic processing of APP in NT2 cells.

[2] = system: sAPPα released from 7WD10 cells (CHO cells stably expressing APP751); assay: AlphaLISA sAPPα release assay (pilot HTS); assay type: cell-based; conditions: 5 μM, 7WD10 cells, 24 h
Protocol: (1). The pilot screen was performed using five 384 well plates. […] FDA approved oncology set was screened at 10 μM final assay concentration, while thiazole derivatives were screened at 5 μM. Seven hits from thiazole derivatives were identified using Ave+3SD rule (45) as a nominal cutoff for hit determination (FIG. 1.1 (bottom)). The hits represented a novel piperazine thiazole chemotype (FIG. 1.2).
Pilot screen of AlphaLISA sAPPα release assay. 8 μL of assay media (DMEM supplemented with 10% FBS and 1× Penicillin/Streptomycin) containing 20,000 cells were added to all wells of the assay plate, except column 1 where only media was added. Plates were incubated for 4 h at 37° C., 5% CO2, 95% RH after which 80 nL of test compounds in DMSO or DMSO alone were added to respective wells using a pin tool device (VP Scientific, San Diego). After 24 h of incubation at 37° C., 5% CO2, 95% RH, sAPPα AlphaLISA beads were added in 10 μL of buffer, equilibrated for 1 h, and AlphaLISA signal was measured using a Biotek H4 Synergy microplate reader (Biotek Inc). Three parameters were calculated on a per-plate basis: (a) the signal-to-background ratio (S/B); (b) the coefficient for variation [CV; CV=(standard deviation/mean)×100)] for all compound test wells; and (c) the Z′-factor [31]. Nominally active compounds from the pilot screen were determined using mean plus 3 times the standard deviation (Mean+3SD) was used as the cut-off.
In the absence of known pharmacological agents capable of inducing an increase of sAPPα release, we tested a small molecule (FIG. 2.4A insert, compound 1 in [2]) shown to decrease Aβ release. It was shown that decrease of Aβ release could be accompanied by the increase of soluble APPα, which has a neuroprotective effect. Compound 1 was tested using 20,000 cells/well in the range of 1.2-100 μM using 3-fold serial dilutions and 24 h incubation as an assay endpoint. Increase of sAPPα release was observed only in wells where 100 μM of compound 1 was added either with or without FBS (FIG. 2.4A). Viability of cells was also tested in the presence of 1.2-100 μM of compound 1 to ascertain that the increase of sAPPα release is not due to excessive cell death. Consistent with the above described results, cells were less viable in the absence of FBS. In the presence of 1.2-33 μM of compound 1, cells were approximately 10% less viable than untreated control either with or without FBS (FIG. 2.4B).
To evaluate the ability of the assay to identify compounds that increase the release of sAPPα a pilot screen was conducted using FDA approved oncology set (n=101) and TPIMS heterocycles library (n=700). The pilot screen was performed using five 384 well plates. […]

O=C(Cc1ccccc1)N[C@H](CNc1nc(CN2CCN(C(=O)Cc3ccccc3)CC2)cs1)c1ccccc1 [THPI-244]
lowest concentration with significant increase of sAPPα (sAPPα): 50 nM
TrkA protein level (TrkA; THPI-244 100 nM): 197%
TrkA protein level (TrkA; THPI-244 100 nM plus PKC inhibitor GF 109203 1.0 nM): 192%
time to maximum level in brain ([1]; 0.2 mg/kg i.p., mouse): ≤ 5 min
amount remaining in brain ([1]; 240 min after 0.2 mg/kg i.p.): negligible amount
lowest concentration with significant decrease of Aβ42 (Aβ42): 50 nM
increase of Alpha signal (sAPPα release) [2]: ~2 fold
